Results on twelve compounds are retold here after ChEMBL document CHEMBL1157938, “Cytotoxicity and inhibition of DNA topoisomerase I of polyhydroxylated triterpenoids and triterpenoid glycosides” (Bioorg Med Chem Lett, 2010).

Series [1] relates to A549. The series is described as follows: Cytotoxicity against human A549 cells at 25 uM after 48 hrs by WST8 assay. In kind it is functional, cell-based. For orientation: Formazan colour is commonly taken as a measure of viable cells.
Series [2] deals with PC-3. The series is described as follows: Cytotoxicity against human PC3 cells at 25 uM after 48 hrs by WST8 assay. In kind it is functional, cell-based.
Series [3] has as its system HL-60. Kind of series: Cytotoxicity against human HL60 cells at 25 uM after 48 hrs by WST8 assay. Format: functional, cell-based.
Series [4] deals with PANC-1. Kind of series: Cytotoxicity against human PANC1 cells at 25 uM after 48 hrs by WST8 assay. In kind it is functional, cell-based.
Series [5] has as its system MRC5. Kind of series: Cytotoxicity against human MRC5 cells at 25 uM after 48 hrs by WST8 assay. The conditions noted are these: mrc5, 48 h. Format: cell-based.
In series [6] the target is T1, DNA topoisomerase 1 (Homo sapiens, UniProt P11387).
T1 sequence (P11387 whole entry): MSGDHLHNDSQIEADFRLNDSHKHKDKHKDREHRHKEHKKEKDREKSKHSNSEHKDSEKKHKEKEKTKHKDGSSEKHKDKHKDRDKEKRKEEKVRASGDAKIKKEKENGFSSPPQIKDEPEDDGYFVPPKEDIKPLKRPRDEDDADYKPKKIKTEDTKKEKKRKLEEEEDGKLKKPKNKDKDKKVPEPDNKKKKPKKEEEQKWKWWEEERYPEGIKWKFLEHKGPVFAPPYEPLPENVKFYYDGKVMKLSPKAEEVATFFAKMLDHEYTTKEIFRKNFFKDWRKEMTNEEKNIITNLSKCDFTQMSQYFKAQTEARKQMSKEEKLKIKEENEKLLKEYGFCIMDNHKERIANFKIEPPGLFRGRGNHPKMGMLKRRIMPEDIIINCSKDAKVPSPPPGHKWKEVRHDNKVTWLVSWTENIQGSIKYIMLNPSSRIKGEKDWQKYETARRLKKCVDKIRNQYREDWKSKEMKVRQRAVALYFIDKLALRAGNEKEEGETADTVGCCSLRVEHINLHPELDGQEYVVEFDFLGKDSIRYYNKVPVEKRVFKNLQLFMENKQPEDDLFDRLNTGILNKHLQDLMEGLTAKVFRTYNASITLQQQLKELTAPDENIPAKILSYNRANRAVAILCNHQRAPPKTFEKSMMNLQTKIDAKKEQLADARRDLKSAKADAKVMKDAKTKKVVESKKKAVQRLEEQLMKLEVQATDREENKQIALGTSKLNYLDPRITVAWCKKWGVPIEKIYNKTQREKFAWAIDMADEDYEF
The series is described as follows: Inhibition of human DNA topoisomerase 1-mediated relaxation of supercoiled DNA by gel electrophoresis.

Series [7] has as its target DNA topoisomerase 2-alpha (Homo sapiens, UniProt P11388). The series is described as follows: Inhibition of human DNA topoisomerase 2-mediated relaxation of supercoiled DNA by gel electrophoresis.

The source made the active and inactive calls. No cut-off for these calls is given here.

The IC50 is the concentration at which inhibition is half-maximal. A higher IC50 goes with a need for much substance.

DNA topoisomerase 2-alpha, sequence (P11388 whole entry): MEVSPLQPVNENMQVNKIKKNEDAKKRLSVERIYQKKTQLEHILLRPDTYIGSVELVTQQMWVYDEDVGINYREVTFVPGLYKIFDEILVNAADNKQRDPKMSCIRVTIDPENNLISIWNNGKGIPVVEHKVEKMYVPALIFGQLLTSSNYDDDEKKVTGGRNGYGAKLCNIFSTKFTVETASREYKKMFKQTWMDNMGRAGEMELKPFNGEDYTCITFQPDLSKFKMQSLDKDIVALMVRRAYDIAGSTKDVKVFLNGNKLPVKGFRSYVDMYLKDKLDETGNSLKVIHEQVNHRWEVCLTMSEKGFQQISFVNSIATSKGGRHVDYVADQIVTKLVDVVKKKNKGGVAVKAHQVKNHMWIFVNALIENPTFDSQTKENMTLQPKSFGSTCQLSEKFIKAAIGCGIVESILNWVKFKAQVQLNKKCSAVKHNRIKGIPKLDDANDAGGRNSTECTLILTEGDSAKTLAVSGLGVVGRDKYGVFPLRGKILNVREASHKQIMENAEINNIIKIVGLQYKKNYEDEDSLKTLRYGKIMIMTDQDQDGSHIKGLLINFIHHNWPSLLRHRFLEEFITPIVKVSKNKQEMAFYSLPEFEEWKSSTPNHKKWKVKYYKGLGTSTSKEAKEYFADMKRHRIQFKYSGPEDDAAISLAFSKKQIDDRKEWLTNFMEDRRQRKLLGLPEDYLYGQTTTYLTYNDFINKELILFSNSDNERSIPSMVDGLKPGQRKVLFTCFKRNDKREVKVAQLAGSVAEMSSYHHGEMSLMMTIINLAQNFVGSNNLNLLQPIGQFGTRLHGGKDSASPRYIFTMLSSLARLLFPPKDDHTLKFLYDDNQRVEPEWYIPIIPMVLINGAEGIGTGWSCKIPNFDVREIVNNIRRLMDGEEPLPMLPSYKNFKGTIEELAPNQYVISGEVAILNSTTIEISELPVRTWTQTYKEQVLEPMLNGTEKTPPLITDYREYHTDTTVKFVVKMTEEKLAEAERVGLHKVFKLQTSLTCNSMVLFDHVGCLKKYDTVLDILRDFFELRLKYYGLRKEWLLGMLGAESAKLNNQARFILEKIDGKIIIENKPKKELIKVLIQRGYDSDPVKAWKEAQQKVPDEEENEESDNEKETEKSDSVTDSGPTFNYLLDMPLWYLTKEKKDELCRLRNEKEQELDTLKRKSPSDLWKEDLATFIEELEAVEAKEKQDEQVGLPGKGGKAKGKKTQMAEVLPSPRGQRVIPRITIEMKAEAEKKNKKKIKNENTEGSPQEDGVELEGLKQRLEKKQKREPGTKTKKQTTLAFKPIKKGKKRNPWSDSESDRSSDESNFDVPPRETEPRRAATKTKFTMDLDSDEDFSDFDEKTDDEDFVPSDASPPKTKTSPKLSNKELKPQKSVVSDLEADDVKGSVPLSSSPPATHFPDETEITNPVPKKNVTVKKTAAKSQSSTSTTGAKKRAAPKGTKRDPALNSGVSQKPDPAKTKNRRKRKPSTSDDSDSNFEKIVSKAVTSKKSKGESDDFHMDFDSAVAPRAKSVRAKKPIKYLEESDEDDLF

Consider `CC1(C)C[C@H]2C3=CC[C@@H]4[C@@]5(C)CC[C@H](O[C@@H]6O[C@H](C(=O)O)[C@@H](O)[C@H](O[C@@H]7O[C@@H](CO)[C@H](O)[C@H]7O)[C@H]6O[C@@H]6O[C@H](CO)[C@@H](O)[C@H](O)[C@H]6O)[C@](C)(CO)[C@@H]5CC[C@@]4(C)[C@]3(C)C[C@@H](O)[C@@]2(CO)[C@@H](O)[C@@H]1O` [AESCULIOSIDE ID], for which the “growth inhibition (GI)” value in series [1], in series [2], in series [3] and in series [4] was “inactive” each time. Also, the “growth inhibition (GI)” value in series [5] is “Not Active”.
Take `C/C=C(\C)C(=O)O[C@H]1[C@H](OC(C)=O)[C@]2(CO)[C@H](O)C[C@]3(C)C(=CC[C@@H]4[C@@]5(C)CC[C@H](O[C@@H]6O[C@H](C(=O)O)[C@@H](O)[C@H](O[C@@H]7O[C@@H](CO)[C@H](O)[C@H]7O)[C@H]6O[C@@H]6O[C@H](CO)[C@@H](O)[C@H](O)[C@H]6O)[C@](C)(CO)[C@@H]5CC[C@]43C)[C@@H]2CC1(C)C` [AESCULIOSIDE IIH]: the “growth inhibition (GI)” value in series [1], in series [2], in series [3] and in series [4] was “inactive” throughout. Further, the “growth inhibition (GI)” value in series [5] is given as “Not Active”.
Turning to `CC1(C)CC[C@]2(C(=O)O[C@@H]3O[C@H](CO)[C@@H](O)[C@H](O)[C@H]3O)CC[C@]3(C)C(=CC[C@@H]4[C@@]5(C)CC[C@H](O[C@@H]6O[C@H](C(=O)O)[C@@H](O)[C@H](O)[C@H]6O)C(C)(C)[C@@H]5CC[C@]43C)[C@@H]2C1` [CHIKUSETSUSAPONIN IVA], the “growth inhibition (GI)” value in series [1], in series [2], in series [3] and in series [4] was “inactive” each time. Besides, the “growth inhibition (GI)” value in series [5] is “Not Active”.
With `CC(C)=CC/C=C(/C)[C@H]1CC[C@]2(C)[C@@H]1[C@H](O)C[C@@H]1[C@@]3(C)CC[C@H](O)C(C)(C)[C@@H]3[C@@H](O)C[C@]12C`, the IC50 in series [6] and in series [7] was above 250 µM each time. Further, the “growth inhibition (GI)” value in series [1], in series [2], in series [3] and in series [4] was “inactive” throughout.
`C[C@H]1[C@H](C)CC[C@]2(C(=O)O)CC[C@]3(C(=O)O)C(=CC[C@@H]4[C@@]5(C)CC[C@H](O[C@@H]6O[C@H](CO)[C@@H](O)[C@H](O)[C@H]6O)C(C)(C)[C@@H]5CC[C@]43C)[C@H]12`: the half-maximal inhibitory concentration (IC50) in series [6] and in series [7] was above 250 µM in each case. Further, the “growth inhibition (GI)” value in series [1], in series [2], in series [3] and in series [4] was “inactive” in each case.
Take `CC(C)=CCC[C@](C)(O[C@@H]1O[C@H](CO[C@@H]2OC[C@H](O)[C@H](O)[C@H]2O)[C@@H](O)[C@H](O)[C@H]1O)[C@H]1CC[C@]2(C)[C@@H]1[C@H](O)C[C@@H]1[C@@]3(C)CC[C@H](O)C(C)(C)[C@@H]3[C@@H](O)C[C@]12C` [GINSENOSIDE F3]: the 50% inhibitory concentration (IC50) in series [6] and in series [7] was above 250 µM each time. The “growth inhibition (GI)” value in series [1], in series [2], in series [3] and in series [4] was “inactive” in each case.
As to `CC(C)=CCC[C@](C)(O)[C@H]1CC[C@]2(C)[C@@H]1[C@H](O)C[C@@H]1[C@@]3(C)CC[C@H](O[C@@H]4O[C@H](CO)[C@@H](O)[C@H](O)[C@H]4O[C@@H]4O[C@H](CO)[C@@H](O)[C@H](O)[C@H]4O)C(C)(C)[C@@H]3CC[C@]12C`, the concentration for half-maximal inhibition (IC50) in series [6] and in series [7] was above 250 µM each time. For the same compound, the “growth inhibition (GI)” value in series [1], in series [2], in series [3] and in series [4] was “inactive” in each case.
On to `C[C@H]1[C@H](C)CC[C@]2(C(=O)O[C@@H]3O[C@H](CO)[C@@H](O)[C@H](O)[C@H]3O)CC[C@]3(C(=O)O)C(=CC[C@@H]4[C@@]5(C)CC[C@H](O)C(C)(C)[C@@H]5CC[C@]43C)[C@H]12`, for which the IC50 in series [6] and in series [7] was above 250 µM in each case. The “growth inhibition (GI)” value in series [1], in series [2], in series [3] and in series [4] was “inactive” throughout.
In the case of `C[C@H]1[C@H](C)CC[C@]2(C(=O)O[C@@H]3O[C@H](CO)[C@@H](O)[C@H](O)[C@H]3O)CC[C@]3(C(=O)O)C(=CC[C@@H]4[C@@]5(C)CC[C@H](O[C@H]6O[C@@H](C)[C@H](O)[C@@H](O)[C@@H]6O)C(C)(C)[C@@H]5CC[C@]43C)[C@H]12`, the IC50 in series [6] and in series [7] was above 250 µM throughout. For the same compound, the “growth inhibition (GI)” value in series [1], in series [2], in series [3] and in series [4] was “inactive” throughout.
Consider `C[C@H]1[C@H](C)CC[C@]2(C(=O)O)CC[C@]3(C(=O)O)C(=CC[C@@H]4[C@@]5(C)CC[C@H](O[C@H]6O[C@@H](C)[C@H](O)[C@@H](O)[C@H]6O)C(C)(C)[C@@H]5CC[C@]43C)[C@H]12`, for which the concentration for half-maximal inhibition (IC50) in series [6] and in series [7] was above 250 µM each time. Further, the “growth inhibition (GI)” value in series [1], in series [2], in series [3] and in series [4] was “inactive” throughout.
As for `C[C@H]1[C@H](C)CC[C@]2(C(=O)O)CC[C@]3(C(=O)O)C(=CC[C@@H]4[C@@]5(C)C[C@@H](O)[C@H](O)C(C)(C)[C@@H]5CC[C@]43C)[C@H]12`, the concentration for half-maximal inhibition (IC50) in series [6] and in series [7] was above 250 µM throughout. Moreover, the “growth inhibition (GI)” value in series [1], in series [2], in series [3] and in series [4] was “inactive” in each case.
For the compound `CC(C)=CCC[C@](C)(O[C@@H]1O[C@H](CO)[C@@H](O)[C@H](O)[C@H]1O)[C@H]1CC[C@]2(C)[C@@H]1[C@H](O)C[C@@H]1[C@@]3(C)CC[C@H](O[C@@H]4O[C@H](CO)[C@@H](O)[C@H](O)[C@H]4O)C(C)(C)[C@@H]3CC[C@]12C` [GINSENOSIDE F2], the IC50 in series [6] and in series [7] was above 250 µM throughout. The “growth inhibition (GI)” value in series [1], in series [2], in series [3] and in series [4] was “inactive” throughout.
